“Also recorded” adds a separate entry of the source.
Experiments:
Solubility in solvents = type: physicochemical
Text: The compound is amorphous yellow powder.

[1] = target: T1, crude rat lens aldose reductase (Rattus norvegicus, UniProt P07943); experiment: Rat lens aldose reductase inhibition, decrease in absorbance at 340 nm; type: biochemical; details: as stated in embodiment b50; read-out: IC50 against crude rat lens aldose reductase
T1 construct: from tissue; host or cells: rat eye lens homogenate, 10,000 r.p.m. supernatant
Description: Lens are collected from rat eyes and homogenised with sodium, potassium phosphate buffer (0.135 M, pH 7.0) containing 0.5 mM of phenyl methyl sulphonyl fluoride and 10 mM of p-mercaptoethanol. The homogenate is centrifuged at 10,000 r.p.m for 30 minutes at 4° C. The supernatant is taken as enzyme source. Enzyme reaction is carried out at 25° C. in a quartz cuvette with a 1-cm light path. The assay mixture contained 100 μL of nicotinamide adenine dinucleotide phosphate tetra sodium salt (from a stock solution of 9.6 mM), 100 μL of DL-glyceraldehyde (from a stock solution of 250 mM), 10 μL of inhibitor dissolved in dimethyl sulphoxide, sodium-potassium-phosphate buffer (0.135 M, pH 7.0) to make up the total volume to […] and the reaction is initiated by the addition of 200 μL of enzyme solution. The enzyme reaction is monitored by the decrease in absorbency at 340 nm and compared with enzyme reaction without inhibitor.

[2] = target: T2, purified soybean lipoxygenase (LOX-1) (Glycine max, UniProt P08170); experiment: Soybean lipoxygenase (LOX-1) inhibition, absorbance at 234 nm; type: biochemical; details: as stated in embodiment b50; read-out: IC50 against purified soybean lipoxygenase
T2 construct: Soybean lipoxygenase (LOX-1) is purified according to the method of Axelrod et al; from tissue; host or cells: soybean seeds (Hardee variety), dehulled and defatted
T2 sequence (P08170 1-839): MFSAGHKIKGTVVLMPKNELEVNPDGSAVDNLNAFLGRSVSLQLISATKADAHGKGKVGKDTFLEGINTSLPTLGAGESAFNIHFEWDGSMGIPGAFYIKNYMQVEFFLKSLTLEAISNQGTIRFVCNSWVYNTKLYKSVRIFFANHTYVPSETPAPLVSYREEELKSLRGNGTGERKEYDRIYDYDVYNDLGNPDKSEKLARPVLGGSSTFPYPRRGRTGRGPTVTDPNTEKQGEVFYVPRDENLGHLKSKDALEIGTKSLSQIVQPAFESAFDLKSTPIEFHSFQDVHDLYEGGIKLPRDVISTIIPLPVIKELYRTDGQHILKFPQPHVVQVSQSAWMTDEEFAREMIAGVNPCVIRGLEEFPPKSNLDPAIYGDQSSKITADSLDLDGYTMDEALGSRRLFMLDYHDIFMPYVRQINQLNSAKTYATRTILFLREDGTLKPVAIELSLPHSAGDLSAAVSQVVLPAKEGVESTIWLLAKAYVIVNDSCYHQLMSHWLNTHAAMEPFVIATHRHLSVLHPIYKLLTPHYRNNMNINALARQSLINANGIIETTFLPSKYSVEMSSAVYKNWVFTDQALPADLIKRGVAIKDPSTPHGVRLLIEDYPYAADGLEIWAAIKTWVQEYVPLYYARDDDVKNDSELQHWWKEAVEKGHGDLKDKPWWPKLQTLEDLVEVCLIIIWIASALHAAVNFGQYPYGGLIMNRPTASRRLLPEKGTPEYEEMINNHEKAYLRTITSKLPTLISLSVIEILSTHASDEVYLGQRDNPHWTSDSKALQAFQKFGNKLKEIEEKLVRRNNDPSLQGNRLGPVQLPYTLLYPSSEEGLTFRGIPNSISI
Description: Soybean lipoxygenase (LOX-1) is purified according to the method of Axelrod et al., lipoxygenase from soybeans. Methods in Enzymology 1981, 71, 441–451, using the Hardee variety of soybean, after dehulling and defatting by hexane. The substrate, sodium linoleate (10 mM) is prepared as follows:
To 70 mg of linoleic acid an equal weight of Tween-20 and 4 ml of oxygen free water is added and homogenized by drawing back and forth in a pasture pipette, avoiding air bubbles. Sufficient quantity of 0.5 N NaOH is added to this to yield a clear solution. The resulting sodium linoleate is divided into 1–2 mL portions in small screw cap vials, flushed with N2 before closing, and keep frozen until needed. Enzyme reaction is carried out at 25° C. in a quartz cuvette with a 1 cm light path. The assay mixture contained (2.975−x) ml of borate buffer (0.2 M, pH 9.0), 0.025 ml of sodium linoleate substrate, and x mL of enzyme. After each addition the mixture is stirred with a few strokes of a plastic paddler. The reference cuvette contained no enzyme. Absorption at 234 nm is recorded, and the reaction rate is determined from the slope of the straight-line portion of the curve.

solubility in organic solvents (Solubility in solvents; ethanol, methanol, ethyl acetate, dimethyl sulphoxide): soluble
solubility in aqueous alkaline solution (Solubility in solvents; sodium bicarbonate, sodium carbonate, sodium hydroxide solution (b24 also potassium bicarbonate, potassium carbonate, lithium hydroxide, potassium hydroxide)): soluble
solubility in water (Solubility in solvents; water): insoluble
IC50 [1]: 69 µM
IC50 [2]: 79 µM
Structure (SMILES): C/C=C/c1c(C)c(OC)c(C(=O)O)c(C(N)=O)c1O [compound 1, 2-amido, 3-hydroxy, 4-propene, 5-methyl, 6-methoxy benzoic acid]
solubility in chloroform and hexane (Solubility in solvents; chloroform, hexane): sparingly soluble; also recorded: slightly soluble
